Legend:
[1] = target: Mycobacterium tuberculosis CYP124 (Mycobacterium tuberculosis, UniProt P9WPP3); test: surface plasmon resonance; format: binding
[2] = target: T1, Mycobacterium tuberculosis CYP126 (Mycobacterium tuberculosis, UniProt P9WPN9); test: surface plasmon resonance; format: binding
Homo sapiens CYP51 = target: T2, Homo sapiens CYP51 (Homo sapiens, UniProt Q16850); test: surface plasmon resonance; format: binding
T2 construct: gene CYP51A1; recombinant, immobilised on CM5 SPR chip
T2 sequence (Q16850 1-509): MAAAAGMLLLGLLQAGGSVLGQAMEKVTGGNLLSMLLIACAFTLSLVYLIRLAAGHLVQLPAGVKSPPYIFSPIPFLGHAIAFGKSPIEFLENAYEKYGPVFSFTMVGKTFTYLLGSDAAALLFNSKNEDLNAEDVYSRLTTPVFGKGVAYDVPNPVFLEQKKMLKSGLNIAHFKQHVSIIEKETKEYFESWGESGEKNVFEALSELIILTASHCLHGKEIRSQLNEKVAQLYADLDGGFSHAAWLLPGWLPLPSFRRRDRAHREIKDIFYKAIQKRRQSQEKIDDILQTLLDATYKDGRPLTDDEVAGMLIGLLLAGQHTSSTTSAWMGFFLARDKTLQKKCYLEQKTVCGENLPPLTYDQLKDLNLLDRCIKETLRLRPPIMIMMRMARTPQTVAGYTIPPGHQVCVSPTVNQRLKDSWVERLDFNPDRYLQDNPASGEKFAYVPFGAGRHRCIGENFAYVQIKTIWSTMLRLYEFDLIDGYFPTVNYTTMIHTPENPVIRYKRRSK

[3] = target: T3, Mycobacterium tuberculosis CYP125 (Mycobacterium tuberculosis, UniProt P9WPP1); test: biochemical; set-up: SPR (Biacore, CM5 chip, immobilised CYP), two-state reaction model, global fit KD
Protocol: (§1) Cytochrome P450 and steroid dehydrogenases are pharmaceutically significant drug targets. However, for most of these targets, there is no effective, selective and safe regulator. In this regard, many laboratories and pharmaceutical companies around the world are working on producing selective modulators of cytochrome P450 and human steroid dehydrogenase. […] Injection of a solution of ligands (studied CYPs) in immobilization buffer (10 mM sodium acetate, pH 4.5 in the case of CYP51 Candida albicans and Candida glabrata; 10 mM sodium acetate, pH 5.0 in the case of all other CYPs) was carried out for 5 min at flow rate 5 µL/min. After this, the chip was incubated for 1 hour in a docked state in the “Stand By” device mode at a measuring cell temperature of 25°C, which led to the hydrolysis of unreacted activated dextran groups. Table S4. The amount of the ligand immobilized on the chip. MT - Mycobacterium tuberculosis, human - Homo sapiens, Calb - Candida albicans, Cglab - Candida glabrata Ligands The amount of the ligand immobilized, RU CYP51_MT 5499 CYP124_MT 3315 CYP125_MT 5730 CYP126_MT 4590 CYP142_MT 2445 CYP51_human 8286 CYP51_Calb 2603 CYP51_Cglab 4888

Candida glabrata CYP51 [4] = target: T4, Candida glabrata CYP51 (Nakaseomyces glabratus, UniProt P50859); test: biochemical; set-up: SPR (Biacore, CM5 chip, immobilised CYP), two-state reaction model, global fit KD; settings: SPR, two-state model; read-out: KD (мкM)
T4 construct: gene ERG11; recombinant, immobilised on CM5 SPR chip
Protocol: as §1

[5] = target: T5, Mycobacterium tuberculosis CYP51 (Mycobacterium tuberculosis, UniProt P9WPP9); test: biochemical; set-up: SPR (Biacore, CM5 chip, immobilised CYP), two-state reaction model, global fit KD
Protocol: as §1

[6] = target: T1, Mycobacterium tuberculosis CYP126; test: biochemical; set-up: SPR (Biacore, CM5 chip, immobilised CYP), two-state reaction model, global fit KD
Protocol: as §1

[7] = target: T3, Mycobacterium tuberculosis CYP125; test: surface plasmon resonance; format: binding
Candida glabrata CYP51 [8] = target: T4, Candida glabrata CYP51; test: surface plasmon resonance; format: binding
Candida albicans CYP51 = target: T6, Candida albicans CYP51 (Candida albicans, UniProt P10613); test: surface plasmon resonance; format: binding
T6 construct: gene ERG11; recombinant, immobilised on CM5 SPR chip

[9] = target: T5, Mycobacterium tuberculosis CYP51; test: surface plasmon resonance; format: binding
[10] = target: Mycobacterium tuberculosis CYP142 (Mycobacterium tuberculosis, UniProt P9WPL5); test: surface plasmon resonance; format: binding
Chain of Mycobacterium tuberculosis CYP142 (P9WPL5 whole entry): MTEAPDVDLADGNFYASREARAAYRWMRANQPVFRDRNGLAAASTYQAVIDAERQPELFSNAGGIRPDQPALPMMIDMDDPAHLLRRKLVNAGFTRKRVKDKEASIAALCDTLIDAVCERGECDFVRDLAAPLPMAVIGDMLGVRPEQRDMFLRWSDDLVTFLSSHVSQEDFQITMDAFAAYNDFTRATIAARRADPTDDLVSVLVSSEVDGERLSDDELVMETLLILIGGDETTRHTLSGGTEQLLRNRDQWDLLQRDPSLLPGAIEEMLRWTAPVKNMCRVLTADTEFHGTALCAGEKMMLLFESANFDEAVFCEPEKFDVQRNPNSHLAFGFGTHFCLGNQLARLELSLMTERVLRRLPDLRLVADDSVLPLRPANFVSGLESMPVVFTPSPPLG

T5 sequence (P9WPP9 whole entry): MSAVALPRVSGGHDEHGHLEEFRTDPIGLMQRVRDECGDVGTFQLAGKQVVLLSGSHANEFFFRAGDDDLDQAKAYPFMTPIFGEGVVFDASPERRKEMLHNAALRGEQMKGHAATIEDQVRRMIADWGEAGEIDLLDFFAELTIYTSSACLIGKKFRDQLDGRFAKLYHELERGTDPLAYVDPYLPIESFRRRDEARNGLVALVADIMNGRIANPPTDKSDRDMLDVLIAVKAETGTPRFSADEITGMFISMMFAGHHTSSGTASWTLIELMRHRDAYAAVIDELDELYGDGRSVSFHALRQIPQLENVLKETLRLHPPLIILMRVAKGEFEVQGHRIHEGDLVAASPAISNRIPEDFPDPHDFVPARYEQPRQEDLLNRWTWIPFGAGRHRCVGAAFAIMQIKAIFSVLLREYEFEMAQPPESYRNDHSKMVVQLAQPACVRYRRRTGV
T1 sequence (P9WPN9 whole entry): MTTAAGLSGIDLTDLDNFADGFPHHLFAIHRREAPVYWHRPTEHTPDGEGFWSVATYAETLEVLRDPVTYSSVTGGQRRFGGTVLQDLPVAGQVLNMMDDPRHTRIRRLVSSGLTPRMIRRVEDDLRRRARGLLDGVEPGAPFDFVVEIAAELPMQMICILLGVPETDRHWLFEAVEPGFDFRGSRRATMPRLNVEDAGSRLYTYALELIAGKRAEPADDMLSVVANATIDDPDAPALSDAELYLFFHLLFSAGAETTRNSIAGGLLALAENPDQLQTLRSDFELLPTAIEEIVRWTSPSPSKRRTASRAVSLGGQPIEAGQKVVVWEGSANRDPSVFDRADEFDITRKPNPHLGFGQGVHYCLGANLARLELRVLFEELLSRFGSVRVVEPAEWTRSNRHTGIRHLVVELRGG
T3 sequence (P9WPP1 whole entry): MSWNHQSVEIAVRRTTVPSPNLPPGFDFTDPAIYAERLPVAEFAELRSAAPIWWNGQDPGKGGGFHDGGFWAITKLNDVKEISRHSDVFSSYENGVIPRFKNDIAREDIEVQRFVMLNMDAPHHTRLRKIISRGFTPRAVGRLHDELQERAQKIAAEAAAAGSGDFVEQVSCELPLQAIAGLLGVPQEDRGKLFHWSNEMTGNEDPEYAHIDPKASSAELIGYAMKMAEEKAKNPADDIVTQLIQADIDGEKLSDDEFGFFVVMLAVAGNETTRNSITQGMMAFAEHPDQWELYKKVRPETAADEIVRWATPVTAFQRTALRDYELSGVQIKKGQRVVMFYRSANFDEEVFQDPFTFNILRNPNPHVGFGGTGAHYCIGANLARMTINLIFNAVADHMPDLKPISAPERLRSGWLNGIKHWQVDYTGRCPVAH
T4 sequence (P50859 whole entry): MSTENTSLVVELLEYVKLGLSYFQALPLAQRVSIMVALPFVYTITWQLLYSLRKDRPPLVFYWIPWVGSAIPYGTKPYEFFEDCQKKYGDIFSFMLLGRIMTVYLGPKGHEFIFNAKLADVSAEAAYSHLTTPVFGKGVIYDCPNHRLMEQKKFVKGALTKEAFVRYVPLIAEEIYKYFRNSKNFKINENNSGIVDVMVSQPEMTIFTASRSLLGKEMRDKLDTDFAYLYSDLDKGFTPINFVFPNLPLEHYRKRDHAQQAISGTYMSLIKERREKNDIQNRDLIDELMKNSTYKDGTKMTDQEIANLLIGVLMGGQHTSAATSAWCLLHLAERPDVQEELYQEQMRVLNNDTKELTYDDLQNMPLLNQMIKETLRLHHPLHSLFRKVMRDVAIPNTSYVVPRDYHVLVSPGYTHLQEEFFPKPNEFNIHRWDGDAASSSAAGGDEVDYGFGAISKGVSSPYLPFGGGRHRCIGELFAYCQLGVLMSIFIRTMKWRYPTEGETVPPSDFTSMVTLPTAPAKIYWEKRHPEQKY
Chain of Mycobacterium tuberculosis CYP124 (P9WPP3 whole entry): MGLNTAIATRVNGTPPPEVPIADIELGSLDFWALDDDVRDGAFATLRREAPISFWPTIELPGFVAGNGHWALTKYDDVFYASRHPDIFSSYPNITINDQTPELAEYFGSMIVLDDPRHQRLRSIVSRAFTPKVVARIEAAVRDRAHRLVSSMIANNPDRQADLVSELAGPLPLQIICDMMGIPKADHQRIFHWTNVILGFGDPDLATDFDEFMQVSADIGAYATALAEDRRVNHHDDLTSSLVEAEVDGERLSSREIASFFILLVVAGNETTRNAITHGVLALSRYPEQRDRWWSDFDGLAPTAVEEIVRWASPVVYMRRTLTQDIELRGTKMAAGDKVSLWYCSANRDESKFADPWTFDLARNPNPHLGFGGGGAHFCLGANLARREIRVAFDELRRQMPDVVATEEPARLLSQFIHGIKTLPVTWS
T6 sequence (P10613 whole entry): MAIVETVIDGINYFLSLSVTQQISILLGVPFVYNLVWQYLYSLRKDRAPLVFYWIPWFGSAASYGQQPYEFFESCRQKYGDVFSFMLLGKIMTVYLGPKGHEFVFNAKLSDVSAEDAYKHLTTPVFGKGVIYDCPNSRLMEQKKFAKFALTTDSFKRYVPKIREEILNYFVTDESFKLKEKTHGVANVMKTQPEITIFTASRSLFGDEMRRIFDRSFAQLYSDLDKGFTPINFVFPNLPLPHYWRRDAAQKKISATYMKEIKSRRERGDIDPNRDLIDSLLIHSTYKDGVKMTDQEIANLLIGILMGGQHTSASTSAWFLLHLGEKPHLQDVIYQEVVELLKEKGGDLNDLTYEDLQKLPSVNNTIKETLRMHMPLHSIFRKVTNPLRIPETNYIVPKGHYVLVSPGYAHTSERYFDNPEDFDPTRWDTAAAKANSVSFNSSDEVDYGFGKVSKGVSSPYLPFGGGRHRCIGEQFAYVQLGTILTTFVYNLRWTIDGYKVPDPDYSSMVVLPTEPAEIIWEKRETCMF

## CCCc1cc(=O)c2c(O)c3c(O)c(-c4c(O)cc(O)c5c(O)c6c(=O)cc(CCC)oc6cc45)c(O)cc3cc2o1 [compound 1, 5,5′,6,6′,8,8′-hexahydroxy-2,2′-dipropyl-4H,4′H-[7,9′-bibenzo[g]chromene]-4,4′-dione]
[1]
  Kd: > 10 µM
[2]
  Kd: > 10 µM
Homo sapiens CYP51
  Kd: > 10 µM
[3]
  Kd: 55.3 µM
Candida glabrata CYP51 [4]
  Kd: 93.9 µM
[5]
  Kd: 67.3 µM
[6]
  Kd: 60.5 µM
[7]
  Kd: > 10 µM
Candida glabrata CYP51 [8]
  Kd: > 10 µM
Candida albicans CYP51
  Kd: > 10 µM
[9]
  Kd: > 10 µM
[10]
  Kd: > 10 µM

From paper PMC10887160, “Phanogracilins A–C, New Bibenzochromenones of Crinoid Phanogenia gracilis (Hartlaub, 1890)” (Biomolecules, 2024)
